# Positions count from the first letter of the chain named.
# What was measured:
# Kv12.1 (Elk1) = target: T1, Kv12.1 (Elk1) (Homo sapiens, UniProt Q96L42); assay: whole-cell patch clamp in transfected CHO cells; type: cell-based
# T1 sequence (Q96L42 1-1107): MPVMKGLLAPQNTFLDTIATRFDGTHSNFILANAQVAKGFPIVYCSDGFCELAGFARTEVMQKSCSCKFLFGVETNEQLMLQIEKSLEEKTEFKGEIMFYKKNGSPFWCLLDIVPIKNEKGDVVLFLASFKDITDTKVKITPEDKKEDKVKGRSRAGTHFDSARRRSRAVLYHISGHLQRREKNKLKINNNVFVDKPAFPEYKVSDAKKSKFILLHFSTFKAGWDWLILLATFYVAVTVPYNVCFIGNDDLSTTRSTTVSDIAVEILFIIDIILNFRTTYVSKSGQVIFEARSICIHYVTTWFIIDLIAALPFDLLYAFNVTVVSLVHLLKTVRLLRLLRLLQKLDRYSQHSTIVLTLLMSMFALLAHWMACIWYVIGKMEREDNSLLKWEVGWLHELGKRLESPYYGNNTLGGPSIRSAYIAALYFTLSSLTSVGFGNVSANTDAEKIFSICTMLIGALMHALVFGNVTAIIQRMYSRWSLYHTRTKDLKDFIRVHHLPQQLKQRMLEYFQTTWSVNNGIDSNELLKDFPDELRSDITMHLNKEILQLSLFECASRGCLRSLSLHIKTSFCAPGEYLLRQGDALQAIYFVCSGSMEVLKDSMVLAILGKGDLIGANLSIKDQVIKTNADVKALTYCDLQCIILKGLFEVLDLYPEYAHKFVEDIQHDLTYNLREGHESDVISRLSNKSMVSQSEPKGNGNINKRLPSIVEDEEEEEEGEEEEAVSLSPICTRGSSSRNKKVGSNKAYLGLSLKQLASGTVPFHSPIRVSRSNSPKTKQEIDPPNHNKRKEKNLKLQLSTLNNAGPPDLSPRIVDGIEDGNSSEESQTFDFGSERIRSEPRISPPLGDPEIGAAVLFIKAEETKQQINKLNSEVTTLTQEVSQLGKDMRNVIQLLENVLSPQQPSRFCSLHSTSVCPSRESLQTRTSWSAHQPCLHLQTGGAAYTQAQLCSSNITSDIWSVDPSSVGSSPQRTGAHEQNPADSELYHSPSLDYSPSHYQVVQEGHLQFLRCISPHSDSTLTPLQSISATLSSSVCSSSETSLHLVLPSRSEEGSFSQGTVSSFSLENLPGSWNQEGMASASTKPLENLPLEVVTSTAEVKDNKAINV
# Kv12.1(H462Y) = target: T2, Kv12.1(H462Y) (Homo sapiens, UniProt Q96L42, H462Y); assay: whole-cell patch clamp in transfected CHO cells; type: cell-based
# T2 sequence (Q96L42 1-1107 H462Y): T1 sequence (Q96L42 1-1107) with H462Y
compound,measurement,setting,value
C=C[C@H]1C[N@@]2CC[C@H]1C[C@H]2[C@H](O)c1ccnc2ccc(OC)cc12 [quinine],IC50,Kv12.1 (Elk1),970 µM
same,IC50,Kv12.1(H462Y),56 µM

# Source: paper PMC6609544 (British Journal of Pharmacology, 2019)
